Biological target: human EP3 receptor (Homo sapiens (Human), UniProt P43115)
Assay: EP3 Radioligand SPA Binding Assay
Conditions: [3H]-PGE2 displacement, Millipore EP3 Chem1 membranes; geometric mean Ki, calculated from IC50 by Cheng-Prusoff
Method: EP3 Radioligand SPA Binding Assay
Compound affinity was expressed as a […], defined as the concentration of compound required to decrease [^3H] PGE2 binding by 50% for a specific membrane batch at a given concentration of radioligand.
Test compounds were half log serially diluted in 100% DMSO (J. T. Baker #922401). 1 μL of each compound was added to appropriate wells of a 384-well plate (Matrix Cat #4322). Unlabeled PGE2 (Tocris Cat #2296) at a final concentration of 1 μM was used to determine non-specific binding. 1 μL of 100% DMSO (J. T. Baker #922401) was used to determine total binding. Millipore EP3 Chem1 membranes (prepared in-house from cell paste derived from the Millipore ChemiSCREEN™ Human Recombinant EP3 Prostanoid Receptor Calcium-Optimized Stable Cell Line (Millipore Cat #HTS092C. http://www.millipore.com/catalogue/item/hts092c)) were thawed and diluted in binding buffer (50 mM Hepes pH 7.4 (Lonza Cat #17-737), 5 mM MgCl2 (Sigma-M1028), and 0.1% BSA (Sigma A-7409)) to a final concentration of 1 μg/25 μL. 25 μL of diluted membranes were added to prepared compound plates. WGA coated PVT SPA Beads (Perkin Elmer Cat #RPNQ0060) were diluted in binding buffer to a concentration of 4 μg/ul, and 25 μL of the SPA bead mixture was then added to each well for a final assay concentration of 100 μg/well. [^3H]-PGE2 (Perkin Elmer Cat #NET428) was diluted in binding buffer to a concentration of […], and 25 μL was added to all wells for a final assay concentration of 1.125 nM. Plates were incubated for 30 minutes at r.t. (approximately 25° C.) with shaking. Radioactivity associated with each well was measured after a 10 hour incubation using a Wallac Trilux MicroBeta plate-based scintillation counter and a normalized protocol at 1 minute read/well. The Kd for [^3H]-PGE2 was determined by carrying out saturation binding, with data analysis by non-linear regression, fit to a one-site hyperbola (Graph Pad Prism). IC50 determinations were made from competition curves, analyzed with a proprietary curve fitting program (SIGHTS) and a 4-parameter logistic dose response equation. Ki values were calculated from IC50 values, using the Cheng-Prusoff equation.
Results are reported as geometric mean Ki values.

human EP3 receptor, sequence (P43115 whole entry): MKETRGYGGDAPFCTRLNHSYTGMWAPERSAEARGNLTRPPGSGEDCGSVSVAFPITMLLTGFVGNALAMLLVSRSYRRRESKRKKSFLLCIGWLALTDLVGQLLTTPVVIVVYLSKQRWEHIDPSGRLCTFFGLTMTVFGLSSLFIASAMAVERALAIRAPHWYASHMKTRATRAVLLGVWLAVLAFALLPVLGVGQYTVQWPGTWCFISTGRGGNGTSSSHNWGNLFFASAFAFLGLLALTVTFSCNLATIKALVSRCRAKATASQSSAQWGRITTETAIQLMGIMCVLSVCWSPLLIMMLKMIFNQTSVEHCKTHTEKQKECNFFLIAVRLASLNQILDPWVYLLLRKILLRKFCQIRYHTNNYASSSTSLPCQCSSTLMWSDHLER

| SMILES | Ki [nM] |
| --- | --- |
| CCn1ncc2c(F)cc(-c3ccc([C@@]4(C)CCCNC4=O)c(=O)[nH]3)cc21 [Example 1, (R)-6-(1-ethyl-4-fluoro-1H-indazol-6-yl)-3-(3-methyl-2-oxopiperidin-3-yl)pyridin-2(1H)-one] | 2 |
| Cn1ncc2c(Cl)cc(-c3ccc([C@@]4(C)CCCNC4=O)c(=O)[nH]3)cc21 [Example 2, (R)-6-(4-chloro-1-methyl-1H-indazol-6-yl)-3-(3-methyl-2-oxopiperidin-3-yl)pyridin-2(1H)-one] | 3.6 |
| CCn1ncc2c(C)cc(-c3ccc([C@@]4(C)CCCNC4=O)c(=O)[nH]3)cc21 [Example 3, (R)-6-(1-ethyl-4-methyl-1H-indazol-6-yl)-3-(3-methyl-2-oxopiperidin-3-yl)pyridin-2(1H)-one] | 9.5 |
| Cn1ccc2ccc(-c3ccc([C@@]4(C)CCCNC4=O)c(=O)[nH]3)cc21 [Example 4, (R)-6-(1-methyl-1H-indol-6-yl)-3-(3-methyl-2-oxopiperidin-3-yl)pyridin-2(1H)-one] | 11.2 |
| Cn1ccc2cc(-c3ccc([C@@]4(C)CCCNC4=O)c(=O)[nH]3)ccc21 [Example 5, (R)-6-(1-methyl-1H-indol-5-yl)-3-(3-methyl-2-oxopiperidin-3-yl)pyridin-2(1H)-one] | 12.2 |
| Cn1ccc2cc(-c3ccc([C@@]4(C)CCNC4=O)c(=O)[nH]3)ccc21 [Example 6, (R)-6-(1-methyl-1H-indol-5-yl)-3-(3-methyl-2-oxopyrrolidin-3-yl)pyridin-2(1H)-one] | 46 |
| Cn1cnc2cc(-c3ccc([C@@]4(C)CCCNC4=O)c(=O)[nH]3)cc(Cl)c21 [Example 7, (R)-6-(7-chloro-1-methyl-1H-benzo[d]imidazol-5-yl)-3-(3-methyl-2-oxopiperidin-3-yl)pyridin-2(1H)-one] | 7.8 |
| Cn1ncc2c(Cl)cc(-c3ccc([C@@]4(C)CCNC4=O)c(=O)[nH]3)cc21 [Example 8, (R)-6-(4-chloro-1-methyl-1H-indazol-6-yl)-3-(3-methyl-2-oxopyrrolidin-3-yl)pyridin-2(1H)-one] | 14.2 |
| Cn1ccc2cc(-c3ccc([C@@]4(C)CCNC4=O)c(=O)[nH]3)cc(F)c21 [Example 9, (R)-6-(7-fluoro-1-methyl-1H-indol-5-yl)-3-(3-methyl-2-oxopyrrolidin-3-yl)pyridin-2(1H)-one] | 11.9 |
| CCn1ccc2ccc(-c3ccc([C@@]4(C)CCNC4=O)c(=O)[nH]3)cc21 [Example 10, (R)-6-(1-ethyl-1H-indol-6-yl)-3-(3-methyl-2-oxopyrrolidin-3-yl)pyridin-2(1H)-one] | 19.9 |
| Cc1cc(-c2ccc([C@@]3(C)CCCNC3=O)c(=O)[nH]2)cc2c1cnn2C [Example 12, (R)-6-(1,4-dimethyl-1H-indazol-6-yl)-3-(3-methyl-2-oxopiperidin-3-yl)pyridin-2(1H)-one] | 25 |
| C[C@]1(c2ccc(-c3cc(F)c4[nH]nc(C5CC5)c4c3)[nH]c2=O)CCCNC1=O [Example 14, (R)-6-(3-cyclopropyl-7-fluoro-1H-indazol-5-yl)-3-(3-methyl-2-oxopiperidin-3-yl)pyridin-2(1H)-one] | 29.2 |
